From PubChem BioAssay (NCI)
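Cells were grown in 96-well plates and exposed to each compound for 48 hours at five concentrations; endpoints were interpolated linearly between bracketing concentrations, or set to the highest concentration if not reached. GI50 = concentration required for 50% inhibition of growth. TGI denotes the concentration required for complete inhibition of growth.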

How the values were obtained:
Test in all cases: NCI-60 cell line screen, 48 h
[1] = system: KM12 colon
[2] = system: 786-0 renal
[3] = system: HL-60(TB) leukemia
[4] = system: SF-539 CNS
[5] = system: MALME-3M melanoma
[6] = system: HOP-62 NSCLC
[7] = system: SNB-19 CNS
[8] = system: HOP-92 NSCLC
[9] = system: SW-620 colon
[10] = system: NCI/ADR-RES ovarian

SMILES	TGI [1]	TGI [2]	TGI [3]	TGI [4]	TGI [5]	TGI [6]	TGI [7]	TGI [8]	TGI [9]	GI50 [1]	GI50 [6]	GI50 [2]	GI50 [7]	GI50 [3]	GI50 [4]	GI50 [8]	GI50 [9]	GI50 [5]	GI50 [10]	TGI [10]
CCCN(CCC)c1c([N+](=O)[O-])cc(C(N)=O)cc1[N+](=O)[O-]	> 100 µM	> 100 µM	87.4 µM	> 100 µM	> 100 µM															
CC(C(=O)C(C)O[Si](c1ccccc1)(c1ccccc1)C(C)(C)C)=P(c1ccccc1)(c1ccccc1)c1ccccc1 (stereo not given)	12.9 µM	15.4 µM	4.24 µM	13.4 µM	12 µM	9.23 µM	14.5 µM	4.74 µM	15.4 µM											
O=C1CCC(=O)C(C(=O)CCC(=O)Nc2ccc(Cl)cc2)C1 (stereo not given)	> 100 µM	> 100 µM	> 100 µM	> 100 µM	> 100 µM		> 100 µM	> 100 µM	> 100 µM											
COC(=O)C([O][Ge]([CH3])([CH3])[CH3])c1ccccc1 (stereo not given)	> 100 µM	> 100 µM	> 100 µM	> 100 µM	> 100 µM	> 100 µM	> 100 µM	> 100 µM	> 100 µM	> 100 µM	> 100 µM	> 100 µM	> 100 µM	90.8 µM	> 100 µM	> 100 µM	> 100 µM	> 100 µM		
COc1ccccc1NC(=O)NS(=O)(=O)c1ccccc1	> 100 µM	> 100 µM	> 100 µM	> 100 µM	> 100 µM	> 100 µM	> 100 µM	> 100 µM	> 100 µM											
COc1ccc2nc(NC(=O)C(=O)C(C#N)c3ccc(CC#N)cc3)sc2c1 (stereo not given)	> 100 µM	> 100 µM	> 100 µM	> 100 µM	> 100 µM	> 100 µM	> 100 µM	> 100 µM	> 100 µM											
C=CCN1C(=O)C/C(=C2/CCC(=O)N2CC=C)C1=O	> 100 µM	> 100 µM	> 100 µM	> 100 µM	> 100 µM	> 100 µM	> 100 µM	> 100 µM	> 100 µM											
O=C1/C(=C/c2ccc(Cl)cc2)COc2ccc(Br)cc21	> 100 µM	> 100 µM	> 100 µM	> 100 µM	> 100 µM	> 100 µM		> 100 µM	> 100 µM											
c1cc[c]([Sn]([O]c2cccc3cccnc23)([c]2ccccc2)[c]2ccccc2)cc1	0.0267 µM	0.029 µM		0.0387 µM		0.145 µM	0.127 µM	0.0575 µM	0.0217 µM	0.0135 µM	0.0482 µM	0.015 µM	0.04 µM		0.0195 µM	0.0172 µM	0.0101 µM			
O=C1NC(=Nc2ccccc2Cl)SC1C(=O)Nc1ccc([N+](=O)[O-])cc1[N+](=O)[O-] (stereo not given)	> 100 µM	> 100 µM	> 100 µM	> 100 µM	> 100 µM	> 100 µM	> 100 µM	> 100 µM	> 100 µM											
CN(C)/C=C/C(=O)c1cccc(C(=O)/C=C/N(C)C)n1	> 100 µM	> 100 µM	> 100 µM	> 100 µM	> 100 µM	> 100 µM	> 100 µM	> 100 µM	> 100 µM											
CC1CC(=O)CC[C@@H]1OCc1ccccc1 (stereo not given in full)	> 100 µM	> 100 µM	> 100 µM	> 100 µM	> 100 µM	> 100 µM	> 100 µM		> 100 µM											
Cc1nc(=O)n2c(c1C(=O)Nc1ccc(Cl)cc1)NCCC2	> 100 µM	> 100 µM	> 100 µM	> 100 µM	> 100 µM	> 100 µM	> 100 µM	> 100 µM	> 100 µM											
CC(=O)OC1CC2C(C)(C)C(=O)C=C[C@]2(C)C2CCC3(C)C(=CCC3[C@H](CO)C[C@H](O)C(=O)C(C)(C)O)[C@]12C (stereo not given in full)	39 µM	34.1 µM	43.8 µM	35.1 µM	33.3 µM		> 100 µM		41 µM											
COc1cccc(C2N3CCCCC3[C@@H]3c4[nH]c5ccccc5c4CCN23)c1OC (stereo not given in full)		32.4 µM	31.7 µM	28.5 µM		29.4 µM	24.3 µM	31.6 µM	33.4 µM											
N#CC(N)(C(=O)C(=O)NCCCNC(=O)C(=O)C(N)(C#N)c1ccc(Cl)cc1)c1ccc(Cl)cc1 (stereo not given)	> 100 µM	> 100 µM	> 100 µM	> 100 µM	> 100 µM	> 100 µM	> 100 µM	> 100 µM	> 100 µM											

SMILES	TGI [1]	TGI [2]	TGI [3]	TGI [4]	TGI [5]	TGI [6]	TGI [7]	TGI [8]	TGI [9]	GI50 [1]	GI50 [6]	GI50 [2]	GI50 [7]	GI50 [3]	GI50 [4]	GI50 [8]	GI50 [9]	GI50 [5]	GI50 [10]	TGI [10]
O=[P+](O)c1cc2c3ccccc3ccc2c2ccccc12	> 100 µM	> 100 µM	> 100 µM	> 100 µM		> 100 µM	> 100 µM		> 100 µM											
Nc1ccc(C(=O)N/C(=C\c2ccc3c(c2)OCO3)c2nc3ccc4c(c3[nH]2)C(=O)c2ccccc2C4=O)cc1	> 100 µM	72.2 µM		> 100 µM	> 100 µM	> 100 µM	> 100 µM	95.7 µM	> 100 µM											
CC(C)C(NCc1c2ccccc2nc2ccccc12)C(=O)O (stereo not given)	> 100 µM	> 100 µM	73.8 µM	> 100 µM	> 100 µM	> 100 µM		61.9 µM	> 100 µM											
Cc1ccc(/C=C2\CN(C(=O)CCN3CCC(=NO)CC3)C/C(=C\c3ccc(C)cc3)C2=O)cc1		3.42 µM	4.6 µM	3.27 µM			4.43 µM	4.6 µM				1.68 µM	1.58 µM	1.69 µM	1.77 µM	1.86 µM				
COc1cc2ccc(C(=O)O)cc2cc1OC	> 100 µM	> 100 µM		> 100 µM	> 100 µM	> 100 µM	> 100 µM	> 100 µM	> 100 µM											
C=C1C(=O)O[C@H]2[C@H]1CC/C(COC(=O)c1ccc(Br)cc1)=C\CC[C@@]1(C)O[C@@H]21	3.66 µM	3.09 µM	3.37 µM	2.88 µM			4.08 µM	3.29 µM	2.87 µM	1.8 µM		1.62 µM	1.85 µM	0.664 µM	1.5 µM	1.72 µM	1.08 µM		2.34 µM	8.68 µM
NC(=O)COc1ccc(Br)cc1Br	> 100 µM	> 100 µM	> 100 µM	> 100 µM	> 100 µM	> 100 µM	> 100 µM	> 100 µM	> 100 µM											
O=C(/C=C/c1ccc(OCCCOc2ccc(/C=C/C(=O)c3ccc(Cl)cc3)cc2)cc1)c1ccc(Cl)cc1	> 100 µM	> 100 µM	> 100 µM	> 100 µM	> 100 µM	> 100 µM	> 100 µM	> 100 µM	> 100 µM											
CC(C)=CCCC1(C)C=Cc2c(ccc3c2[nH]c2cc(O)c(C)cc23)O1 (stereo not given)	8.77 µM	7.87 µM	> 25 µM	9.78 µM	11 µM	8.71 µM	> 25 µM	10.2 µM	9.49 µM	4.74 µM	4.74 µM	4.27 µM	> 25 µM	9.48 µM	4.59 µM	4.22 µM	4.68 µM	5.2 µM		
CCc1cc2c(c3[nH]ccc13)[C@@H](C)C[C@H]2C	36.5 µM	28.2 µM	48.8 µM		35.4 µM			32.6 µM	41 µM											
COC(=O)C1=C(c2cc(OC)c(OC)c(OC)c2)OC(c2cc(OC)c(OC)c(OC)c2)C1 (stereo not given)	32.4 µM	70.8 µM		75.1 µM	72.3 µM	> 100 µM	> 100 µM	36.5 µM	> 100 µM											
CC(C)N(C(=O)C12C3C4C5C3C1(C(=O)N(C(C)C)C(C)C)C5C42)C(C)C (stereo not given)	> 100 µM	> 100 µM	> 55.6 µM	> 100 µM	> 100 µM	> 100 µM	> 100 µM	> 100 µM	> 88.2 µM											
CC(C)S(=O)(=O)ON1C(=O)c2ccc([N+](=O)[O-])cc2C1=O	> 100 µM	> 100 µM	> 100 µM	> 100 µM	> 100 µM	> 100 µM	> 100 µM	> 100 µM	> 100 µM											
CC(=O)[O-].CC(=O)[O-].CC(=O)[O-].CC(=O)[O-].CO.CO.CO.[Rh+2].[Rh+2].c1ccc(-c2ccccn2)nc1	> 100 µM	> 100 µM		> 100 µM		> 100 µM	> 100 µM		> 100 µM	> 100 µM	> 100 µM	> 100 µM	> 100 µM		> 100 µM		> 100 µM			
CCOc1c(Cc2ccccc2)c(=O)n2c3ccccc3n3c(=O)n(C)c(=O)c1c23	> 100 µM	> 100 µM		> 100 µM	> 100 µM	> 100 µM	> 100 µM	> 100 µM	> 100 µM											
O=C1/C(=C/c2ccccc2)CN(C(=O)Oc2ccccc2)C/C1=C\c1ccccc1	> 100 µM	49.1 µM	5.78 µM	22.3 µM	> 100 µM	39.7 µM	40.9 µM		> 100 µM											
